Data taken from patent EP2951180B1, “2,6,7,8 SUBSTITUTED PURINES AS HDM2 INHIBITORS” (Merck Sharp & Dohme Corp., priority 2013, dated 2014).
Like-named read-outs stand apart in the source and are kept apart here.

Biological target: T1, HDM2 (Homo sapiens, UniProt Q00987)
T1 construct: Thioredoxin (N); made in house; host or cells: E. coli strain BL21(DE3)Rosetta
Assay: HDM2 FRET assay (inhibition of binding of FITC labeled p53-pocket peptide to HDM2)
Details: read-out: FRET IC50
Summary of the method: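 Final: 0.5 nM His-HDM2, 3 nM FITC peptide, 0.25 nM Tb anti-His Ab; PBS, 0.01% BSA, 0.01% Tween-20; 0.1% DMSO.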

[1] = 0.5 nM HDM2 (residues 17 to 125), 3nM peptide, two hour incubation at room temperature

T1 sequence (Q00987 17-125): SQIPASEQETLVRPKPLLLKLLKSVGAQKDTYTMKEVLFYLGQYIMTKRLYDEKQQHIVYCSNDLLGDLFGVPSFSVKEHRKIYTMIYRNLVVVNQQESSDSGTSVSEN

## C[C@@H](Nc1nc(-c2noc(=O)[nH]2)nc2nc(C(C)(O)c3ccncc3)n(C[C@H]3CC[C@H](C)CC3)c12)C1CCC1 (stereo partly drawn) [Example 22.36, 3-(6-{[(1R)-1-cyclobutylethyl]amino}-8-(1-hydroxy-1-pyridin-4-ylethyl)-7-[(trans-4-methylcyclohexyl)methyl] -7H-purin-2-yl)-1,2,4-oxadiazol-5(4H)-one]
Table 22
  IC50: 13.6 nM

## C[C@@H](Nc1nc(-c2noc(=O)[nH]2)nc2nc(C3CCCCC3O)n(C[C@H]3CC[C@H](C)CC3)c12)C1CCC1 (stereo partly drawn) [Example 22.46, 3-(6-{[(1R)-1-cyclobutylethyl]amino}-8-(2-hydroxycyclohexyl)-7-[(trans-4-methylcyclohexyl)methyl] -7H-purin-2-yl)-1,2,4-oxadiazol-5(4H)-one]
Table 22
  IC50: 445 nM

## C[C@@H](Nc1ncnc2nc(N[C@@H](CO)c3ccccc3)n(Cc3ccc(C(F)(F)F)cc3)c12)C1CCC1 [Example 9.29]
Table 9
  IC50: 4470 nM

## CCC1CCC(Cn2c(-c3cc(C(C)C)ccn3)nc3nc(-c4noc(=O)[nH]4)nc(N[C@H](C)C4CCC4)c32)C1 (stereo partly drawn) [Example 18.4, 3-(6-(((R)-1-cyclobutylethyl)amino)-7-((3-ethylcyclopentyl)methyl) -8-(4-isopropylpyridin-2-yl)-7H-purin-2-yl)-1,2,4-oxadiazol-5(4H)-one]
Table 18
  IC50: 131 nM

## CC1CCCC(c2nc(-c3noc(=O)[nH]3)nc3nc(N4CCOC[C@H]4c4ccccc4)n(C[C@H]4CC[C@H](C)CC4)c23)C1 (stereo partly drawn) [Example 16.169, 3-{6-(3-methylcyclohexyl)-7-[(trans-4-methylcyclohexyl)methyl]-8-[(3R)-3-phenylmorpholin-4-yl]-7H -purin-2-yl}-1,2,4-oxadiazol-5(4H)-one]
[1]
  IC50: 2.53 nM

## CCOC1(c2nc3nc(-c4noc(=O)[nH]4)nc(N[C@H](C)C4CCC4)c3n2C[C@H]2CC[C@H](C)CC2)CCC1 [Example 22.76, 3-(6-{[(1R)-1-cyclobutylethyl]amino}-8-(1-ethoxycyclobutyl)-7-[(trans-4-methylcyclohexyl)methyl] -7H-purin-2-yl)-1,2,4-oxadiazol-5(4H)-one]
Table 22
  IC50: 4.22 nM

## CC1=CCC(Cn2c(-c3cc(C(C)C)ccn3)nc3nc(C(=O)O)nc(N[C@H](C)C4CCC4)c32)CC1 (stereo partly drawn) [Example 18.5, 6-(((R)-1-cyclobutylethyl)amino)-8-(4-isopropylpyridin-2-yl)-7-((4-methylcyclohex-3-en-1-yl)methyl)-7H-purine-2-carboxylic acid]
Table 18
  IC50: 6.48 nM

## CC(c1nc2nc(C(=O)O)nc(N[C@H](C)C3CCC3)c2n1Cc1ccc(C(F)(F)F)cc1)N(C)C1CCCCC1 (stereo partly drawn) [Example 10.11, 6-(((R)-1-cyclobutylethyl)amino)-8-(1-(cyclohexyl(methyl)amino)ethyl)-7-(4-(trifluoromethyl)benzyl)-7H-purine-2-carboxylic acid]
Table 10
  IC50: 22.1 nM

## C[C@@H](Nc1nc(C(=O)O)nc2nc(N3CCCCC3c3ccccn3)n(C[C@H]3CC[C@H](C)CC3)c12)C1CCC1 (stereo partly drawn) [Example 11.21, 6-{[(1R)-1-cyclobutylethyl]amino}-7-[(trans-4-methylcyclohexyl)methyl]-8-(2-pyridin-2-ylpiperidin-1-yl)-7H-purine-2-carboxylic acid]
Table 11
  IC50: 2.72 nM

## CCC(C)CNc1nc(C(=O)O)nc2nc(-c3cccc(C)c3)n(Cc3ccc(C(F)(F)F)cc3)c12 (stereo not shown) [Example 6.63, 6-[(2-methylbutyl)amino]-8-(3-methylphenyl)-7-[4-(trifluoromethyl)benzyl]-7H-purine-2-carboxylic acid]
Table 6
  IC50: 719 nM

## Cc1cccc(-c2nc3nc(C(=O)O)nc(N[C@H](C)C4CC4)c3n2Cc2ccc(Br)cc2)c1 [Example 6.5, 7-(4-bromobenzyl)-6-{[(1R)-1-cyclopropylethyl]amino}-8-(3-methylphenyl)-7H-purine-2-carboxylic acid]
Table 6
  IC50: 234 nM

## C[C@H]1CC[C@H](Cn2c(N3CCOC[C@H]3CO)nc3nc(-c4noc(=O)[nH]4)nc(-c4cccc(Cl)c4)c32)CC1 [Example 16.45, 3-{6-(3-chlorophenyl)-8-[(3R)-3-(hydroxymethyl)mor pholin-4-yl]-7-[(trans-4-methylcyclohexyl)methyl]-7H-purin-2-yl}-1,2,4-oxadiazol-5(4H)-one]
[1]
  IC50: 47.5 nM

## Cc1cccc(-c2nc3nc(C(=O)O)nc(N[C@H](C)C(C)C)c3n2Cc2ccc(C(F)(F)F)cc2)c1 [Example 6.48, 6-{[(1R)-1,2-dimethylpropyl]amino}-8-(3-methylphenyl)-7-[4-(trifluoromethyl)benzyl]-7H-purine-2-carboxylic acid]
Table 6
  IC50: 145 nM

## C[C@H]1CC[C@H](Cn2c(N3CCOC[C@H]3c3ccccc3)nc3nc(-c4noc(=O)[nH]4)nc(-c4cc(Cl)cnc4OCc4ccccc4)c32)CC1 [Example 16.161, 3-{6-[2-(benzyloxy)-5-chloropyridin-3-yl]-7-[(trans-4-methylcyclohexyl)methyl]-8-[(3R)-3-phenylmorpholin-4-yl]-7H-purin-2-yl}-1,2,4-oxadiazol-5(4H)-one]
[1]
  IC50: 3.65 nM

## C[C@@H](Nc1nc(-c2noc(=O)[nH]2)nc2nc(Sc3ccccc3)n(C[C@H]3CC[C@H](C)CC3)c12)C1CCC1 [Example 19.1, 3-[6-{[(1R)-1-cyclobutylethyl]amino}-7-[(trans-4-methylcyclohexyl)methyl]-8-(phenylsulfanyl)-7H-purin-2-yl]-1,2,4-oxadiazol-5(4H)-one]
Table 19
  IC50: 0.763 nM

## C[C@H](CO)Nc1nc2nc(C(=O)O)nc(N[C@H](C)C3CCC3)c2n1Cc1ccc(C(F)(F)F)cc1 [Example 9.7, 6-{[(1R)-1-cyclobutylethyl]amino}-8-{[(1R)-2-hydroxy-1-methylethyl]amino}-7-[4-(trifluoromethyl)benzyl]-7H-purine-2-carboxylic acid]
Table 9
  IC50: 35.8 nM

## Cc1cccc(-c2nc3nc(C(=O)O)nc(NCC4CC4)c3n2Cc2ccc(C(F)(F)F)cc2)c1 [Example 6.36, 6-[(cyclopropylmethyl)amino]-8-(3-methylphenyl)-7-[4-(trifluoromethyl)benzyl]-7H-purine-2-carboxylic acid]
Table 6
  IC50: 670 nM

## CC(C)CC1CCN(c2nc3nc(-c4noc(=O)[nH]4)nc(N[C@H](C)C4CCC4)c3n2Cc2ccc(C(F)(F)F)cc2)C1 (stereo partly drawn) [Example 9.92, 3-(6-{[(1R)-1-cyclobutylethyl]amino}-8-[3-(2-methylpropyl)pyrrolidin-1-yl]-7-[4-(trifluoromethyl)benzyl]-7H-purin-2-yl)-1,2,4-oxadiazol-5(4H)-one]
Table 9
  IC50: 478 nM

## C[C@@H](Nc1nc(-c2noc(=O)[nH]2)nc2nc(N3CC4CC4C3C(F)(F)F)n(C[C@H]3CC[C@H](C)CC3)c12)C1CCC1 (stereo partly drawn) [Example 11.152, 3-(6-{[(1R)-1-cyclobutylethyl]amino}-7-[(trans-4-methylcyclohexyl)methyl]-8-[2-(trifluoromethyl)-3-azabicyclo[3.1.0]hex-3-yl]-7H-purin-2-yl)-1,2,4-oxadiazol-5(4H)-one]
Table 11
  IC50: 3.09 nM

## C[C@H](Nc1nc2nc(C(=O)O)nc(N[C@H](C)C3CCC3)c2n1Cc1ccc(C(F)(F)F)cc1)c1ccccc1 [Example 9.16, 6-{[(1R)-1-cyclobutylethyl]amino}-8-{[(1S)-1-phenylethyl]amino}-7-[4-(trifluoromethyl)benzyl]-7H-purine-2-carboxylic acid]
Table 9
  IC50: 1.91 nM

## C[C@@H](Nc1nc(-c2noc(=O)[nH]2)nc2nc(C(C)(O)C(F)(F)F)n(C[C@H]3CC[C@H](C)CC3)c12)C1CCC1 (single isomer, unassigned) [Example 22.13]
Table 22
  IC50: 5.84 nM

## C[C@@H]1OCCN(c2nc3nc(-c4noc(=O)[nH]4)nc(-c4cncc(Cl)c4)c3n2C[C@H]2CC[C@H](C)CC2)[C@@H]1c1ccccc1 [Example 16.129, 3-{6-(5-chloropyridin-3-yl)-7-[(trans-4-methylcyclohexyl)methyl]-8-[(2S,3R)-2-methyl-3-phenylmorpholin-4-yl]-7H-purin-2-yl}-1,2,4-oxadiazol-5(4H)-one]
[1]
  IC50: 21.9 nM

## C[C@@H](Nc1nc(NCCO)nc2nc(N3CCOC[C@H]3c3ccccc3)n(C[C@H]3CC[C@H](C)CC3)c12)C1CCC1 [Example 13.1, 2-((6-(((R)-1-cyclobutylethyl)amino)-7-((trans-4-methylcyclohexyl)methyl)-8-((R)-3-phenylmorpholino)-7H-purin-2-yl)amino)ethanol]
[1]
  IC50: 885 nM

## C[C@@H](Nc1nc(-c2noc(=O)[nH]2)nc2nc(C(C)(F)c3ccccc3)n(C[C@H]3CC[C@H](C)CC3)c12)C1CCC1 (single isomer, unassigned) [Example 22.77]
Table 22
  IC50: 2.95 nM

## CC1CCCN1c1nc2nc(-c3noc(=O)[nH]3)nc(N[C@H](C)C3CCC3)c2n1C[C@H]1CC[C@H](C)CC1 (stereo partly drawn) [Example 11.34, 3-[6-{[(1R)-1-cyclobutylethyl]amino}-7-[(trans-4-methylcyclohexyl)methyl]-8-(2-methylpyrrolidin-1-yl)-7H-purin-2-yl]-1,2,4-oxadiazol-5(2H)-one]
Table 11
  IC50: 25.4 nM

## CC[C@@H]1COCCN1c1nc2nc(-c3noc(=O)[nH]3)nc(-c3cccc(Cl)c3)c2n1C(C)[C@H]1CC[C@H](C)CC1 (single isomer, unassigned) [Example 18.51]
Table 18
  IC50: 10.5 nM

## C[C@@H](Nc1nc(N2CCC[C@H]2C(=O)O)nc2nc(N3CCOC[C@H]3c3ccccc3)n(C[C@H]3CC[C@H](C)CC3)c12)C1CCC1 [Example 13.2, 1-(6-{[(1R)-1-cyclobutylethyl]amino}-7-[(trans-4-methylcyclohexyl)methyl]-8-[(3R)-3-phenylmorpholin-4-yl]-7H-purin-2-yl)-L-proline]
[1]
  IC50: 987 nM

## CCC1=CCC(Cn2c(-c3cc(C(C)C)ccn3)nc3nc(-c4noc(=O)[nH]4)nc(N[C@H](C)C4CCC4)c32)CC1 (stereo partly drawn) [Example 18.7, 3-(6-(((R)-1-cyclobutylethyl)amino)-7-((4-ethylcyclohex-3-en-1-yl)methyl)-8-(4-isopropylpyridin-2-yl)-7H-purin-2-yl)-1,2,4-oxadiazol-5(4H)-one]
Table 18
  IC50: 44 nM
